How the values were obtained:
[1] = target: Human CB1R (Cannabinoid receptor 1) (Homo sapiens, UniProt P21554); assay: CB-1 in vitro cAMP (HTRF) assay; format: cell-based; details: HEK cells, cAMP HTRF, 250 nM forskolin; mean where tested more than once; read-out: CB1 HEK_cAMP EC50
Summary of the method: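 Intracellular cAMP from HTRF ratio (d2-cAMP vs Eu-cryptate anti-cAMP), converted to nM via per-plate standards, in stable human CB1R HEK-293 cells.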

[2] = target: Human CB2R (Cannabinoid receptor 2) (Homo sapiens, UniProt P34972); assay: CB-2 in vitro cAMP (HTRF) assay; format: cell-based; details: HEK cells, cAMP HTRF, 250 nM forskolin; mean where tested more than once; read-out: CB2 HEK_cAMP EC50
Summary of the method: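 Competitive HTRF read-out (d2-labelled cAMP vs cryptate antibody) quantifies cAMP in stably transfected HEK-293 cells, seeded the day before at 4E5 cells/mL. Stimulation buffer: HBSS, 5 mM HEPES, 0.1% BSA, 0.5 mM IBMX; forskolin prepared at 1.5 μM in buffer; compounds serially diluted 1/3 in DMSO.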

Chain of Human CB2R (Cannabinoid receptor 2) (P34972 whole entry): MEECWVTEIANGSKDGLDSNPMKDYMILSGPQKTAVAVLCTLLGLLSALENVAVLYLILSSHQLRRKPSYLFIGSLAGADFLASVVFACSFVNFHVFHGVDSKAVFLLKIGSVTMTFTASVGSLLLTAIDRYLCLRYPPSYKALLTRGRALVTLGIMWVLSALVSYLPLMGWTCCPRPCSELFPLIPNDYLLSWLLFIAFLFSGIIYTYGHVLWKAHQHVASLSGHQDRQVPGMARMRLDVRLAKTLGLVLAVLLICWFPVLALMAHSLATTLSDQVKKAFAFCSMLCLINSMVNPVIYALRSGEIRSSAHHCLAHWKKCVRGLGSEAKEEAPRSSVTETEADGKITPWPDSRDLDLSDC
Chain of Human CB1R (Cannabinoid receptor 1) (P21554 whole entry): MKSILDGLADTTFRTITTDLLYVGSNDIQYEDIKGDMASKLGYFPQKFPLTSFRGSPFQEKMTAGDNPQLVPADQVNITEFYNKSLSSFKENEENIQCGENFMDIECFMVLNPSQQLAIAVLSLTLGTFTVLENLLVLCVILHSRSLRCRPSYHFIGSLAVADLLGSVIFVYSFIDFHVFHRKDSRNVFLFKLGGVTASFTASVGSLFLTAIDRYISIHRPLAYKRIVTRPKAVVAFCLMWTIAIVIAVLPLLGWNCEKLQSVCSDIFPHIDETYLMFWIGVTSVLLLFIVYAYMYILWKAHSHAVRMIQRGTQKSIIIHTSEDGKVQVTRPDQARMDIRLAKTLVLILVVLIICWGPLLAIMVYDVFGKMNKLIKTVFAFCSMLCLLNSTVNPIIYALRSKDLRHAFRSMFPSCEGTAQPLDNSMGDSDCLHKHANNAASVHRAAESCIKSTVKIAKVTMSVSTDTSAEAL

SMILES | EC50 [1] | EC50 [2]
O=C(O)c1cccc(S(=O)(=O)N[C@H]2CC[C@H](n3c(C4CC4)nc4ccc(C(c5ccc(Cl)cc5)c5ccc(Cl)cc5)cc43)CC2)c1 [Example 22] | 89 nM | 1520 nM
CCc1nc2ccc(C(CO)(c3ccc(Cl)cc3)c3ccc(Cl)cc3)cc2n1C1CCN(S(=O)(=O)C(F)(F)F)CC1 [Example 244] | 534 nM | > 10000 nM
O=C(O)c1cccc(CN2CCC(n3c(C4CC4)nc4ccc(C(c5ccc(F)cc5)c5ccc(Cl)cc5)cc43)CC2)c1 (stereo not shown) [Example 98] | 16.2 nM | > 10000 nM
O=S(=O)(CCN1CCNCC1)N1CCC(n2c(C3CC3)nc3ccc(C(c4ccc(Cl)cc4)c4ccc(Cl)cc4)cc32)CC1 [Example 45] | 593 nM | > 42000 nM
O=C(c1nc[nH]n1)N1CCC(n2c(C3CC3)nc3ccc(C(c4ccccc4)c4ccccc4)cc32)CC1 [Example 200] | 4720 nM | 6310 nM
CC(c1ccc(C(=O)O)o1)N1CCC(n2c(C3CC3)nc3ccc(C(c4ccc(Cl)cc4)c4ccc(Cl)cc4)cc32)CC1 (stereo not shown) [Example 86] | 15 nM | 10200 nM
O=C(NC1CCCC1)N1CCC(n2c(C3CC3)nc3ccc(C(c4ccc(Cl)cc4)c4ccc(Cl)cc4)cc32)CC1 [Example 74] | 70.6 nM | 5390 nM
NC(=O)c1ccc(CN2CCC(n3c(C4CC4)nc4ccc(C(c5ccc(Cl)cc5)c5ccc(Cl)cc5)cc43)CC2)nc1 [Example 122] | 4.9 nM | 9100 nM
O=C(O)c1cccc(OCCN2CCC(n3c(C4CC4)nc4ccc(C(c5ccc(Cl)cc5)c5ccc(Cl)cc5)cc43)CC2)c1 [Example 44] | 14.6 nM | 2440 nM
Cc1nc2ccc(C(c3ccc(Cl)cc3)c3nccs3)cc2n1C1CCN(S(=O)(=O)C(F)(F)F)CC1 (stereo not shown) [Example 386] | 22 nM | > 10000 nM
O=C(O)c1ccc(S(=O)(=O)N[C@H]2CC[C@@H](n3c(C4CC4)nc4ccc(C(c5ccc(Cl)cc5)c5ccc(Cl)cc5)cc43)CC2)cc1 [Example 42] | 90.8 nM | 8700 nM
NC(=O)c1ccc(S(=O)(=O)N2CCC(n3c(C4CC4)nc4ccc(C(c5ccc(Cl)cc5)c5ccc(Cl)cc5)cc43)CC2)cc1 [Example 262] | 15.5 nM | > 10000 nM
O=C(O)c1ccc(S(=O)(=O)N2CCC(n3c(C4CC4)nc4ccc(C(c5ccc(Cl)cc5)c5ccc(Cl)cc5)cc43)CC2)cc1F [Example 190] | 11.3 nM | 699 nM
O=S(=O)(N1CCC(n2c(C3CCC3)nc3ccc(C(c4ccc(Cl)cc4)c4nccs4)cc32)CC1)C(F)(F)F (stereo not shown) [Example 391] | 60 nM | > 10000 nM
O=C(O)c1cccc(CN2CCC(n3c(C4CC4)nc4ccc(C(c5ccc(Cl)cc5)c5ccc(Cl)cc5)cc43)CC2)c1O [Example 79] | 32.6 nM | 5090 nM
NC(=O)c1csc(S(=O)(=O)N2CCC(n3c(C4CC4)nc4ccc(C(c5ccc(Cl)cc5)c5ccc(Cl)cc5)cc43)CC2)c1 [Example 216] | 6.2 nM | > 10000 nM
O=C(CCO)N1CCC(n2c(C3CC3)nc3ccc(C(c4ccc(Cl)cc4)c4ccc(Cl)cc4)cc32)CC1 [Example 234] | 16.1 nM | 9530 nM
CC(c1cccc(C(=O)O)c1)N1CCC(n2c(C3CC3)nc3ccc(C(c4ccc(Cl)cc4)c4ccc(Cl)cc4)cc32)CC1 (stereo not shown) [Example 87] | 9 nM | 9000 nM

SMILES | EC50 [1] | EC50 [2]
O=C(O)c1ccc(Cl)c(CN2CCC(n3c(C4CC4)nc4ccc(C(c5ccc(Cl)cc5)c5ccc(Cl)cc5)cc43)CC2)c1 [Example 94] | 26.1 nM | 4760 nM
O=C(NCCO)c1cccc(CN2CCC(n3c(C4CC4)nc4ccc(C(c5ccc(Cl)cc5)c5ccc(Cl)cc5)cc43)CC2)c1 [Example 70] | 8.3 nM | 5820 nM
O=C(O)COc1ccc(S(=O)(=O)N2CCC(n3c(C4CC4)nc4ccc(C(c5ccc(Cl)cc5)c5ccc(Cl)cc5)cc43)CC2)cc1 [Example 256] | 129 nM | > 10000 nM
CCOC(=O)N1CCC(n2cnc3ccc(C(c4ccc(Cl)cc4)c4nccs4)cc32)CC1 (stereo not shown) [Example 448] | 100 nM | > 10000 nM
CCOC(=O)N1CCC(n2c(N(C)C)nc3ccc(C(c4ccc(Cl)cc4)c4nccs4)cc32)CC1 (stereo not shown) [Example 439] | > 10000 nM | > 10000 nM
CCc1nc2ccc(C(O)(c3ccc(Cl)cc3)c3ccc(Cl)cc3)cc2n1C1CCN(S(=O)(=O)C(F)(F)F)CC1 [Example 308] | 63.6 nM | > 10000 nM
CC(c1cccc(C(=O)O)c1)N1CCC(n2c(C3CC3)nc3ccc(C(c4ccc(Cl)cc4)c4ccc(Cl)cc4)cc32)CC1 (single isomer, unassigned) [Example 47] | 2.4 nM | 17100 nM
CCc1nc2ccc(C(C(=O)O)(c3ccc(Cl)cc3)c3ccc(Cl)cc3)cc2n1C1CCN(S(=O)(=O)C(F)(F)F)CC1 [Example 266] | 18.4 nM | > 10000 nM
COc1cc(S(=O)(=O)N2CCC(n3c(C4CC4)nc4ccc(C(c5ccc(Cl)cc5)c5ccc(Cl)cc5)cc43)CC2)ccc1C(N)=O [Example 250] | 2.9 nM | 9400 nM
NC(=O)c1ccccc1S(=O)(=O)N1CCC(n2c(C3CC3)nc3ccc(C(c4ccc(Cl)cc4)c4ccc(Cl)cc4)cc32)CC1 [Example 243] | 35.9 nM | 347 nM
CS(=O)(=O)N1CCC(n2c(C3CC3)nc3ccc(C(c4ccc(Cl)cc4)c4ccc(Cl)cc4)cc32)CC1 [Example 270] | 6.6 nM | 9900 nM
O=C(O)c1ccc(CN2CCC(n3c(C4CC4)nc4ccc(C(c5ccc(Cl)cc5)c5ccc(Cl)cc5)cc43)CC2)cc1 [Example 147] | 10.2 nM | 7560 nM
CC(c1cc(C(=O)O)ccn1)N1CCC(n2c(C3CC3)nc3ccc(C(c4ccc(Cl)cc4)c4ccc(Cl)cc4)cc32)CC1 (stereo not shown) [Example 59] | 3.8 nM | > 21000 nM
O=S(=O)(N1CCC(n2cnc3ccc(C(c4ccc(Cl)cc4)c4nccs4)cc32)CC1)C(F)(F)F (stereo not shown) [Example 398] | 21 nM | > 10000 nM
O=S(=O)(N1CCC(n2c(C3CC3)nc3ccc(C(c4ccc(Cl)cc4)c4ccc5c(c4)OCO5)cc32)CC1)C(F)(F)F (stereo not shown) [Example 321] | 6.2 nM | 4030 nM
O=C(O)c1cccc(NC2CCC(n3c(C4CC4)nc4ccc(C(c5ccc(Cl)cc5)c5ccc(Cl)cc5)cc43)CC2)c1 (stereo not shown) [Example 40] | 104 nM | 5120 nM
OC(c1ccc(Cl)cc1)(c1ccc2nc(C3CC3)n(C3CCc4ccccc4C3)c2c1)c1nccs1 (stereo not shown) [Example 341] | 1330 nM | > 10000 nM

More lines, now with the values ahead:

EC50 [1] | EC50 [2] | SMILES
190 nM | 3380 nM | O=C(O)Cc1ccc(N2CCC(n3c(C4CC4)nc4ccc(C(c5ccc(Cl)cc5)c5ccc(Cl)cc5)cc43)CC2)cc1 [Example 157]
6150 nM | > 10000 nM | Clc1ccc(C(c2ccc3nc(C4CNC4)n(CCc4cccc(Cl)c4)c3c2)c2nccs2)cc1 (stereo not shown) [Example 404]
322 nM | 1750 nM | O=C(O)c1cccc(CN2CCC(Cn3c(C4CC4)nc4ccc(C(c5ccc(Cl)cc5)c5ccc(Cl)cc5)cc43)CC2)c1 [Example 10]
103 nM | 3310 nM | COC(=O)c1cccc(OCCn2c(C3CC3)nc3ccc(C(c4ccc(Cl)cc4)c4ccc(Cl)cc4)cc32)c1 [Example 26]
> 10000 nM | > 10000 nM | Clc1ccc(C(c2ccc3ncn(-c4cccc(Cl)c4)c3c2)c2nccs2)cc1 (stereo not shown) [Example 435]
24.8 nM | 3340 nM | NC(=O)c1ccc(C(=O)N2CCC(n3c(C4CC4)nc4ccc(C(c5ccc(Cl)cc5)c5ccc(Cl)cc5)cc43)CC2)cn1 [Example 223]
85.4 nM | 869 nM | COC(=O)c1ccc(OCCn2c(C3CC3)nc3ccc(C(c4ccc(Cl)cc4)c4ccc(Cl)cc4)cc32)cc1 [Example 36]
535 nM | > 10000 nM | Clc1ccc(C(c2ccc3nc(-c4ccc(Cl)cc4Cl)n(C4CCCCC4)c3c2)c2nccs2)cc1 (stereo not shown) [Example 444]
> 10000 nM | > 6600 nM | FC(F)(F)c1csc(C(c2ccc(Cl)cc2)c2ccc3ncn(Cc4ccc(Cl)cc4)c3c2)n1 (stereo not shown) [Example 462]
437 nM | > 10000 nM | CCOC(=O)c1nc2ccc(C(c3ccc(Cl)cc3)c3nccs3)cc2n1-c1cccc(Cl)c1 (stereo not shown) [Example 429]
91.6 nM | 7780 nM | O=C(O)c1cccc(N2CCC(n3c(C4CC4)nc4ccc(C(c5ccc(Cl)cc5)c5ccc(Cl)cc5)cc43)CC2)c1 [Example 163]
212 nM | > 7200 nM | Clc1ccc(Cn2c(-c3ccc(Cl)cc3)nc3ccc(C(c4ccc(Cl)cc4)c4nccs4)cc32)cc1 (stereo not shown) [Example 464]
163 nM | > 10000 nM | Clc1ccc(C(c2ccc(Cl)cc2)c2ccc3nc(C4CC4)n(C4Cc5ccccc5C4)c3c2)cc1 [Example 300]
164 nM | > 7600 nM | Cc1nc2ccc(C(c3ccc(Cl)cc3)c3nccs3)cc2n1Cc1ccc(Cl)cc1 (stereo not shown) [Example 463]
4.4 nM | 314 nM | CCOC(=O)COc1ccc(-n2c(C3CC3)nc3ccc(C(c4ccc(Cl)cc4)c4ccc(Cl)cc4)cc32)cc1 [Example 170]
2410 nM | > 7400 nM | Cc1nc2ccc(C(c3ccc(Cl)cc3)c3nc(C(F)(F)F)cs3)cc2n1Cc1ccc(Cl)cc1 (stereo not shown) [Example 455]
12.5 nM | > 10000 nM | COc1ccc(S(=O)(=O)N2CCC(n3c(C4CC4)nc4ccc(C(c5ccc(Cl)cc5)c5ccc(Cl)cc5)cc43)CC2)cc1 [Example 281]
55.9 nM | 9200 nM | CCOC(=O)COc1cccc(-n2c(C3CC3)nc3ccc(C(c4ccc(Cl)cc4)c4ccc(Cl)cc4)cc32)c1 [Example 173]

From patent US20190031618A1, “BENZIMIDAZOLE DERIVATIVES USEFUL AS CB-1 INVERSE AGONISTS” (Janssen Pharmaceutica NV, priority 2015, published 2019)
